# Earlier results in CN105130966A, “炔基化合物及其使用方法和用途” (Add And Open Up Scientific Co, priority 2014, dated 2015).
# Legend:
# [1] = test system: any protein kinase tested (试验的任何蛋白激酶); settings: Cell, 2006, 125, 733-747
# PI3Kδ = PI3Kδ (Mus musculus, UniProt O35904); settings: ovalbumin-induced airway inflammation; FASEB, 2006, 20, 455-465
# Sequence of PI3Kδ (O35904 whole entry): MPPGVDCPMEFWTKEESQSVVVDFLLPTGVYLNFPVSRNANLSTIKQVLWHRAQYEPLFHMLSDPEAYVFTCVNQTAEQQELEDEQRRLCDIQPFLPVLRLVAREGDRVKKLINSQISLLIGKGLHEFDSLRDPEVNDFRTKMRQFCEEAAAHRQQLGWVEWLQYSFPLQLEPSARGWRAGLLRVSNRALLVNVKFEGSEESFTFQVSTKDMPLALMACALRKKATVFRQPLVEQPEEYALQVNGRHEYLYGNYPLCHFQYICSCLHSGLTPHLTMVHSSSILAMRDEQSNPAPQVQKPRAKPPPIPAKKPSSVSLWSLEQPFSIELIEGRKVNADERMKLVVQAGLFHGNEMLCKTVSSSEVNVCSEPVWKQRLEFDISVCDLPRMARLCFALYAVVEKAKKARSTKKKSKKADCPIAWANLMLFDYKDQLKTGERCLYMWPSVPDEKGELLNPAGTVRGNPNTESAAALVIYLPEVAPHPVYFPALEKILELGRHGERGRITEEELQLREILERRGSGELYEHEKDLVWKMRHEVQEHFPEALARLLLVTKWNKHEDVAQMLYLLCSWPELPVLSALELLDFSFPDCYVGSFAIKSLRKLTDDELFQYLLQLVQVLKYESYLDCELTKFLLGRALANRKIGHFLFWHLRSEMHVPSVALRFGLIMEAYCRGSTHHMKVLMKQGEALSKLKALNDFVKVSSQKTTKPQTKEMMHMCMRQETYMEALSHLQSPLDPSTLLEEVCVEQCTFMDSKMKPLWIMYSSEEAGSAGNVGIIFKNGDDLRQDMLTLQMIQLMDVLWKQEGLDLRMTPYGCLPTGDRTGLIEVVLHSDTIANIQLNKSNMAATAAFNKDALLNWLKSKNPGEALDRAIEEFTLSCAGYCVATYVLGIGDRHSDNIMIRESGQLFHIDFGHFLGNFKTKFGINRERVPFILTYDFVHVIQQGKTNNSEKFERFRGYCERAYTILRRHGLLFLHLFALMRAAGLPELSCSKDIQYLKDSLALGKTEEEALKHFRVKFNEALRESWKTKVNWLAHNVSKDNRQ
# Sequence of PI3Kδ (P26450 whole entry partner): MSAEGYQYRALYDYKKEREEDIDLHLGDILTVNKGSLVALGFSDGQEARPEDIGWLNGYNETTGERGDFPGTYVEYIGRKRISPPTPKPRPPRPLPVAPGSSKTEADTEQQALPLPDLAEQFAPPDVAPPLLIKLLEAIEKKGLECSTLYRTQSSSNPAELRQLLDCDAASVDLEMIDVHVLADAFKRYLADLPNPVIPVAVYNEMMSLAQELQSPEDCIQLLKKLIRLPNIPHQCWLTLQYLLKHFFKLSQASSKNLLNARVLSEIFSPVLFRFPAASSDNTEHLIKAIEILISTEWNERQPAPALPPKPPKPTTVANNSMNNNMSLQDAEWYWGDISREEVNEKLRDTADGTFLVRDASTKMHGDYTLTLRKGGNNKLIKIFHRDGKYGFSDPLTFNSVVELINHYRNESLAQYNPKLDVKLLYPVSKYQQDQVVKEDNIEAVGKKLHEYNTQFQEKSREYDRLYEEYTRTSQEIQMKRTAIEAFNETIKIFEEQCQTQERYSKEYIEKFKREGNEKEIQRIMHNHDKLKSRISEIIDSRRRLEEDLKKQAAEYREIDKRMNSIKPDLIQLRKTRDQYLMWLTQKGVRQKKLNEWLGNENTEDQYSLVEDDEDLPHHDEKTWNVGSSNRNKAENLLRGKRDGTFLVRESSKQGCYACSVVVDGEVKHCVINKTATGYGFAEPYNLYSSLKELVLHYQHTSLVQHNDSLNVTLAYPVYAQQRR
compound,measurement,setting,value
Cc1ccccc1-n1c(Cn2cnc3c(N)ncnc32)nc2cccc(C)c2c1=O [IC87114],activity,[1],不显示活性
same,inflammation,PI3Kδ,显著改善炎症
